Key:
[1] = tested on: spiral ganglion neurons (SGNs); experiment: Whole-cell current-clamp recordings of step-evoked action potentials in dissociated spiral ganglion neurons; assay type: cell-based, Wistar rats; details: for inhibition at 0.1 µM / inhibition at 100 µM: Rattus norvegicus, Neuron, read-out: inhibition of frequency of A.P firing; for inhibition at 0.1 µM / resting membrane potential, difference versus control: 100 nM; for amplitude of the first spike / frequency of spikes and amplitude of the first spike: transient spikers SGNs; for inhibition at 100 µM / amplitude of the first spike: 100 μM; for frequency of spikes and amplitude of the first spike: all concentration tested
Description: The head of 5-8 days old Wistar rats (CERJ, Le Genest, Berthevin, France) was hemi-sectioned aseptically and the cochlea dissected from the temporal bone. In L15 (Leibovitz) medium (Gibco) medium, the cochlear bone was gently removed using fine forceps to isolate the sensorineural tissue. The spiral ganglion was separated from the organ of Corti just before the habenula perforata, and enzymatically (collagenase 0.75 mg·mL^−1, dispase 1 mg·mL^−1 and DNAse 0.75 mg·mL^−1) dissociated for 15 min at 25° C. After washing thoroughly with a Tyrode's solution (Sigma), a transfer pipette was used to gently dissociate the ganglion neurons in culture medium (DMEM/F-12 medium 1:1, 2% N2 nutrient, 28 mM Glc, 1.5 mM Gln, 15 mM HEPES, 2 μM AraC, 10 ng mL-1 BDNF and 1% penicillin/streptomycin). The spiral ganglion neurons were plated onto culture dishes previously coated with 10 ug·mL-1 laminin (Sigma). These low density cultures were maintained at 37° C. in 5% CO2 for 3 to 5 days prior whole cell patch-clamp experiments.
Efficacy of H4R antagonist has been tested using two patch clamp technics: whole-cell current-clamp recordings with dissociated spiral ganglion neurons (SGNs) and loose-patch recordings for SGNs in semi-intact cochlea preparations. For these experiments postnatal day (P) 10-14 Wistar rats were used at DIV2-5.
All experiments were performed using an Axopatch 200B amplifier. Traces were low-pass filtered at 10-20 kHz, and digitized at 100 kHz with a Digidata 1440A board. Data were stored with PClamp10.2 software (Axon Instruments; Molecular Devices Corp., USA) and were analyzed off-line using Clampfit 10.2 (Molecular Devices) and Origin 8 (OriginLab) softwares.
The recording solution contained (in mM): NaCl 135, HEPES 10, glucose 10, MgCl2 1, KCl 5, and CaCl2 2.5, (pH 7.35). For whole-cell patch clamp recordings, recording glass pipettes (4-6 MΩ) were coated with Wax to reduce pipette capacitance and were filled with (in mM): KCl 135, HEPES 10, glucose 10, NaCl 5, EGTA 5, Mg-ATP 3, GTP-Na 1, pH 7.35. For these solutions a minor 3.7 mV liquid junction potential could be measured but membrane voltages were not corrected for it. The osmolarity of all solutions was adjusted to 300 mOsm/L. The control and test solutions were applied using a multiple capillary perfusion system (flow rate˜500 μl/min). After each application of the tested drug, the cells were washed with control buffer.
Recordings were performed at room temperature (RT; 22-25° C.). In dissociated neurons, a 150-200 pA DC square current (1 s duration) was applied every 6 s in order to elicit trains of action potentials. The pharmacological tests were conducted only when recordings presented the following criteria: series resistance (<10 MΩ on average) no more than 3 times the pipette resistance, stable resting membrane potential (R.M.P) negative to −40 mV, overshooting action potentials (magnitude >60 mV for the first action potential), stable firing for up to a minute in control condition.
Two concentrations have been tested: 100 μM and 100 nM.
Typically, in dissociated SGNs, (FIG. 2A1) small depolarizing current steps (0.1 nA-0.4 nA) evoked two types of action potential discharge: transient (no more than 1-2 spikes-rapidly adapting neurons) and sustained firing (number of spikes increasing linearly above threshold-slowly adapting neurons) (FIG. 2A2). Transient spikers SGNs represented the majority of neurons in our cell cultures (80% versus 20% of sustained spikers neurons).

[2] = tested on: tinnitus induced by sodium salicylate or noise exposure; experiment: Gap-Prepulse Inhibition of Acoustic Startle (GPIAS) behavioral model of tinnitus; assay type: in vivo, adult rats; details: rats, single i.p. administration, versus pre-treatment or vehicle
Description: The aim of these in vivo tests is to measure the efficacy of H4R antagonists to decrease (transient and permanent) tinnitus symptoms induced either by sodium salicylate or by high level noise exposure. Evaluation of efficacy is performed in adult rats using the tinnitus test developed by Turner et al. 2006: the Gap-Prepulse Inhibition of Acoustic Startle (GPIAS) behavioral model. This model uses a gap in a constant acoustic background as a pre-stimulus that reduces the acoustic startle reflex amplitude. Rats perceiving tinnitus in a specific frequency have decreased detection of gap embedded in bands similar to the tinnitus frequency. Reduction of the gating efficiency of the gap produces a larger acoustic startle (reduced GPIAS). The level of GPIAS is measured in baseline condition in a cohort of 6 to 8 adult rats. Tinnitus is induced by an i.p administration of sodium salicylate (250 mg/kg) and GPIAS is measured at […] post-induction to measure the reduction in GPIAS (attesting presence of tinnitus). Rats are treated with H4R antagonists (single i.p. administration) or with the vehicle the same day and GPIAS is measured at different time points according to the PK profile of the compounds Alternatively, tinnitus is induced by a unilateral exposure to a 12 kHz narrow band noise presented at 120-126 dB SPL (the contralateral ear is protected with an ear plug) for 2h. […]

[3] = tested on: spiral ganglion neurons (SGNs) in semi-intact cochlea preparation; experiment: Loose-patch recordings of spontaneous action potentials in semi-intact cochlea preparation; assay type: cell-based, Wistar rats; details: 100 μM bath application, within two minutes, two experiments
Description: For this preparation postnatal day (P) 10-14 Wistar rats were used. First steps of the protocol were similar to the cell culture one until the cochlea was freed from the cochlear bone. Cochlear turns (apical and middle) were dissected and isolated in sterile-filtered L-15 (Leibovitz) Medium. Explants were plated upside down (spiral ganglion neurons on top) on 10 μl of growth factor-reduced Matrigel (BD biosciences) and laminin (10 μg/ml)-coated glass coverslips. These preparations were first incubated for 30 min at 37° C. in a 95%/5% 02/CO2 atmosphere and then cultured for 2 to 5 days in vitro in (50%) F12/(50%) DMEM (Invitrogen) supplemented with (2%) N2 nutrient (Fisher Scientific). […]
All experiments were performed using an Axopatch 200B amplifier. […] Data were stored with PClamp10.2 software (Axon Instruments; Molecular Devices Corp., USA) and were analyzed off-line using Clampfit 10.2 (Molecular Devices) and Origin 8 (OriginLab) softwares.
The recording solution contained (in mM): NaCl 135, HEPES 10, glucose 10, MgCl2 1, KCl 5, and CaCl2 2.5, (pH 7.35). […] For these solutions a minor 3.7 mV liquid junction potential could be measured but membrane voltages were not corrected for it. […]
In these semi-intact cochlea preparations, spontaneous discharges of action potential were directly recorded. […] In vitro results were expressed as means±S.E.M. […]

human H3 receptor = target: T1, human H3 receptor (Homo sapiens, UniProt Q9Y5N1); details: radioligand binding; cited from earlier work
T1 construct: expressed in transfected cells; host or cells: SK-N-MC or HEK293 T
T1 sequence (Q9Y5N1 whole entry): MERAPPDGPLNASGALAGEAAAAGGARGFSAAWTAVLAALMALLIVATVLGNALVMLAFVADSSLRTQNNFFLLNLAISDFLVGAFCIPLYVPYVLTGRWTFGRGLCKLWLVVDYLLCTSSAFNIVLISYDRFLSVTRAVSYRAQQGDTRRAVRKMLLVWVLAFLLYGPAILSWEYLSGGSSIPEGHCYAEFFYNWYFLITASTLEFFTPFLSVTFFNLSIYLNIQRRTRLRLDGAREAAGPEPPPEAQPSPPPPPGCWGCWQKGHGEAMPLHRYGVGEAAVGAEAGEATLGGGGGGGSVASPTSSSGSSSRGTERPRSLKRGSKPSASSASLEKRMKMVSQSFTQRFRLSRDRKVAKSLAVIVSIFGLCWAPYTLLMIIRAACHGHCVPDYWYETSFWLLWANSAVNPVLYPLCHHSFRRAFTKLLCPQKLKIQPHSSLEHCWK

Row | Structure (SMILES) | inhibition at 0.1 µM ([1]; sustained SGNs) [%] | inhibition at 100 µM ([1]; sustained SGNs) [%] | resting membrane potential, difference versus control ([1]; sustained SGNs) [mV] | amplitude of the first spike [1] [mV] | frequency of spikes and amplitude of the first spike [1] | GPIAS values [2] | resting membrane potential, increase versus control ([1]; sustained SGNs, high concentration (100 μM)) [mV] | spontaneous (synaptically driven) action potential discharge [3] | Kd (human H3 receptor) [nM]
1 | CN1CCN(C(=O)c2cc3cc(Cl)ccc3[nH]2)CC1 [JNJ7777120, 1-[(5-chloro-1H-indol-2-yl)carbonyl]-4-methylpiperazine] | 21.6 ± 1.7 | 69 ± 8 | 0.55±0.2 | 73.3±6.1 | unaffected | Increase | – | – | –
2 | CN1CCN(C(=O)c2nc3cc(Cl)ccc3[nH]2)CC1 [JNJ10191584, 1-[(5-chloro-1H-benzimidazol-2-yl)carbonyl]-4-methylpiperazine] | 25.2 ± 2 | 46.2 ± 12 | −0.13±0.4 | 83.7±5.2 | unaffected | Increase | 1.5±1 | fully abolished | –
3 | CNCCc1cnc[nH]1 [[^3H]N-a-methyl histamine] | – | – | – | – | – | – | – | – | 1

Reference: patent publication US9688989B2, “H4 receptor inhibitors for treating tinnitus” (SENSORION, priority 2012, dated 2017)
